Experimental findings from patent US9730935B2, “Targeting a non-canonical notch signaling pathway for cancer treatment” (The Board of Trustees of the Leland Stanford Junior …, priority 2013, dated 2017) are described below.

The subject of one experiment is Drosophila muscle tissue. Kind of experiment: Western blot of mitochondrial fraction after CCCP treatment. On the procedure: (§1) Co-Immunoprecipitation and Western blot analysis. Approximately 25 adult fly thoraces were collected and homogenized in HBS buffer (210 mM Mannitol, 70 mM Sucrose, 5 mM HEPES pH 7.4, 1 mM EGTA) containing protease inhibitor (Sigma). The lysate was centrifuged at 1,300 g for 10 min, and the supernatant was collected and centrifuged again at 13,000 g for 15 min. For co-IP, the cytosolic and the mitochondrial fractions were incubated with anti-GFP conjugated protein G-agarose beads (Upstate) at 4° C. for 2 hours. Beads were washed 3× with PBS for 5 min each. Proteins were eluted and analyzed by WB as described (Wu et al., 2013). For co-IP assays using human NSC and GBM cells, soluble extracts of isolated mitochondrial fractions were incubated with a mixture of anti-human PINK1 (Abcam) and protein G-agarose beads (Upstate). The primary antibodies used were: pS505-dAKT and AKT (Cell Signaling Technology), Actin (Millipore), NICD (DSHB), NDUFS3 (MitoScience), complex IV subunit I (MitoScience), Drp-1 (L. Pallanck), Calnexin (Novus), PDE1 (MitoScience), Tom20 (Santa Cruz), KDEL (Enzo Life Science), Rab5 (Abcam), Rab7 (Abcam), rat anti-hNotch1 (1:200; DSBH). Rabbit anti-dPINK1 was generated as described (Yang et al., 2006).
(§2) Mitochondria purification. Intact mitochondria from fly heads, fly thoraces and cultured cells were purified at described previously (Wu et al., 2013). […]

Another experiment relates to HEK 293T cells. Described as above. Format: cell-based, human. Here is the method: as §1, §2
For experiment [1], the system named is Drosophila larval brain NBs (N-induced NB expansion). Kind of experiment: Pharmacological treatment of N-GOF larvae: ectopic NB formation in larval brain. It is filed as in vivo. Particulars: Mdivi-1 5 μM in food, 0.5% DMSO vehicle control, larval brains at 120 hr ALH, PntP1>N-V5. On the procedure:
Pharmacological treatment of larvae. Mdivi-1 (Enzo Life Science) dissolved in 0.5% DMSO was mixed in instant Drosophila media at 5 μM final concentration. 0.5% DMSO alone was used as vehicle control. Embryos were collected on Mdivi-1 containing food or control food for 6 hrs at 25° C. and allowed to develop further to 120 hr ALH before larval brain dissection and immunostaining.
Immunohistochemistry. For larval brain immunostaining, larvae were dissected in Schneider's medium (Invitrogen) and fixed with 4% formaldehyde in PEM buffer (100 mM PIPES at pH 6.9, 1 mM EGTA, 1 mM MgCl2) for 23 min at room temperature. Immunohistochemistry of TH and mito-GFP in Drosophila brain was performed as described (Wu et al., 2013). […] For thoracic muscle mitochondrial morphology analysis, mito-GFP was expressed in thoracic muscle using the Mhc-Gal4 driver and indirect flight muscles were dissected in PBS and examined under fluorescence confocal microscope. […]

Turning to `N#CC(C#N)=NNc1cccc(Cl)c1` [CCCP], the “amount of mitochondrial N” value in the experiment with Drosophila muscle tissue and in the experiment on HEK 293T cells was “not affected” each time. For the same molecule, the “mitochondrial PINK1 level” value with Drosophila muscle tissue and in the experiment on HEK 293T cells was “increased” each time.

Regarding `COc1cc(-n2c(=S)[nH]c3ccccc3c2=O)c(Cl)cc1Cl` [Mdivi-1], the “N-induced NB expansion / ectopic NB formation and brain tumor formation” value in experiment [1] is “attenuated”.
